Values of other authors as cited in patent US7205008B2, “Methods of treating Alzheimer's disease and other amyloidoses using Hypericum perforatum and derivatives thereof” (ProteoTech, Inc., priority 2000, dated 2007).

## Cc1cc(O)c2c(=O)c3c(O)cc(O)c4c5c(O)cc(O)c6c(=O)c7c(O)cc(C)c8c1c2c(c34)c(c78)c65 [hypericin]
After swallowing a pill of Hypericum perforatum, estimated
  fraction of hypericin absorbed: about 20%
Dose of 0.75 mg of hypericin
  time it lasts in the bloodstream: more than a day
